The text below walks through data of US4250183A, “N-(Substituted amino)alkanoyl-aminoalkanoic acids and salts, their use and their compositions” (BYK Gulden Lomberg Chemische Fabrik GmbH, priority 1977, dated 1981).

One data set in a line: in vivo. To be noted: mouse, ip.
A short description of data set [1]: Influence on the pancreatic secretion of the narcotized rat after intraduodenal application. The following applies: in vivo; Table I; LD50 mouse i.p. / ED50 pancreatic secretion rat i.d.; read-out: TQ (LD50/ED50), pancreatic secretion. The format is in vivo, rat (male Sprague-Dawley). The text has this:
(§1) Influence on the Pancreatic and Bile Secretion of the Narcotized Rat Carrying out the Test
(§2) Male Sprague-Dawley rats (250 to 300 g body weight) are narcotized with 1.2 g/kg urethane i.m. Then the abdominal cavity is opened medially, the Ductus choledochus ligatured shortly above its entry into the duodenum and also near the liver joint, and both sections are catheterized towards the liver.
(§3) As in the case of the rat all pancreatic ducts lead into the center section of the Ductus choledochus; it is thus possible in this way to derive separately the pancreatic secreta from the distal (ligatured) section and the bile from the proximal section of the Ductus choledochus.
(§4) The separated quantities of pancreatic juice and bile juice are measured at intervals of 30 minutes during the period from before 2 hours to 3 hours after the intraduodenal […] administration of the compounds to be tested (volume of liquid administered 5 ml/kg).
(§5) The body temperature of the animals is maintained at from 36° to 38° C. by means of electric blankets and radiation; the monitoring of the temperature is carried out rectally.
(§6) The liquid volumes of the 30-minute fractions after the administration of the product are related in each case to the quantity of bile or pancreatic juice secreted prior to the application of the substance (=100%, mean of the two last measurements). The maximum percentage increase of the pancreatic or bile secretion is plotted against the dose and, from this, the ED50 is determined by interpolation.

The next data set relates to pancreatic secretion. The data set is described as above. It is filed as in vivo, rat (male Sprague-Dawley). To be noted: Rattus norvegicus, 0.5 h, read-out: Pancreatic Secretion ED50 (dose which brings about an increase in the pancreatic secretion by a maximum of 50%).
Source text: as §1, §2, §3, §4, §5, §6

For another data set, the system named is bile secretion. In words: Influence on the bile secretion (choleresis) of the narcotized rat after intraduodenal application. It is filed as in vivo, rat (male Sprague-Dawley). The following applies: Rattus norvegicus, 0.5 h, read-out: Bile Secretion ED50 (dose which brings about an increase in the bile secretion by a maximum of 50%).
Source text: as §1, §2, §3, §4, §5, §6

Assay in data set [2]: as above
It is filed as in vivo, rat (male Sprague-Dawley). To be noted: in vivo; Table II; LD50 mouse i.p. / ED50 bile secretion rat i.d.; read-out: TQ (LD50/ED50), bile secretion.
Source text: as §1, §2, §3, §4, §5, §6

The next data set deals with female NMRI mice. In words: Determination of the toxicity, lethal effect on the mouse after intraperitoneal application.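 Also: mice received several intraperitoneal dose levels, five animals per level, and were followed for 14 days to estimate the lethal dose for half the animals.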 To be noted: Table II, i.p., 14 days observation.

Some results are limits rather than exact numbers.

One may read the LD50 as the dose at which mortality reaches 50%. The low end stands for a more toxic substance, the high end for a less toxic substance. In general, ED50 refers to the midpoint of the dose-response relation.

Procedure for female NMRI mice: (§7) The animals (5 animals per dose) are given food and water ad lib. Different dosages of the substances are administered intraperitoneally. The duration of observation is 14 days.
Procedure for in vivo: as §7

With `Cc1cccc(C)c1N(CCCC(=O)N(C)CC(=O)O)C(=O)c1ccc(Cl)cc1` [Serial No. 2, N-[N-(p-chlorobenzoyl)-4-(2,6-dimethylanilino)butyryl]sarcosine], in “in vivo”, the 50% lethal dose (LD50) at 336 h is 700 mg/kg. Also, the selectivity ratio in data set [1] came to 70. Besides, the 50% effective dose (ED50) in the data set with pancreatic secretion was 10 mg/kg.

For the compound `COc1ccc(N(CCCC(=O)O)C(=O)CCN(C(=O)c2ccc(Cl)cc2)c2c(C)cccc2C)cc1` [Serial No. 25, N-[N-(p-chlorobenzoyl)-3-(2,6-dimethylanilino)propionyl]-4-(p-anisidino)butyric acid], in the data set with bile secretion, the ED50 was roughly 1 mg/kg. Further, the selectivity ratio in data set [2] is roughly 60. For the same compound, the 50% lethal dose (LD50) at 336 h in the data set “in vivo” was 60 mg/kg.

Take `Cc1cccc(C)c1N(CCCC(=O)O)C(=O)CCCN(C(=O)c1ccc(Cl)cc1)c1c(C)cccc1C` [Serial No. 11, N-[N-(p-chlorobenzoyl)-4-(2,6-dimethylanilino)butyryl]-4-(2,6-dimethylanilino)butyric acid]: the figures for the median effective dose (ED50) in the data set on bile secretion and with pancreatic secretion were 3 mg/kg and 1 mg/kg, respectively. Besides, the selectivity ratio in data set [2] turned out to be 43; in data set [1] it was 130. The LD50 at 336 h in “in vivo” amounted to 130 mg/kg.

`Cc1cccc(C)c1N(CCCC(=O)NCCCC(=O)O)C(=O)c1ccc(Cl)cc1` [Serial No. 14, N-[N-(p-chlorobenzoyl)-4-(2,6-dimethylanilino)butyryl]-4-aminobutyric acid] gave a 50% lethal dose (LD50) at 336 h in “in vivo” of 400 mg/kg. The selectivity ratio in data set [1] was found to be 1000. The median effective dose (ED50) in the data set with pancreatic secretion was determined as 0.4 mg/kg.

`COc1ccc(N(CCCC(=O)O)C(=O)[C@H](CCSC)NC(=O)c2ccc(Cl)cc2)cc1` [Serial No. 23, N-[N-(p-chlorobenzoyl)methionyl]-4-(p-anisidino)butyric acid]: the ED50 in the data set with bile secretion came to 2.5 mg/kg. Also, the selectivity ratio in data set [2] stood at 280. This compound also came in with a 50% lethal dose (LD50) at 336 h in “in vivo” of 700 mg/kg.

Turning to `CCc1cccc(C)c1N(CCCC(=O)O)C(=O)CCN(C(C)=O)c1c(C)cccc1C` [Serial No. 22, N-[N-acetyl-3-(2,6-dimethylanilino)propionyl]-4-(2-ethyl-6-methylanilino)butyric acid], the figures for the median effective dose (ED50) in the data set on bile secretion and in the data set with pancreatic secretion were 1.3 mg/kg and 3 mg/kg, respectively. Besides, the selectivity ratio in data set [2] turned out to be 331; in data set [1] it was 143. For the same compound, in “in vivo”, the LD50 at 336 h is 430 mg/kg.

`COc1ccc(N(CC(=O)N(CCCC(=O)O)c2ccc(OC)cc2)C(C)=O)cc1` [Serial No. 8, N-[N-acetyl-2-(p-anisidino)acetyl]-4-(p-anisidino)butyric acid] displayed a median lethal dose (LD50) at 336 h in “in vivo” of 1200 mg/kg. The selectivity ratio in data set [1] turned out to be 1200. Besides, in the data set on pancreatic secretion, the 50% effective dose (ED50) was found to be 1 mg/kg.

Turning to `COc1ccc(N(CCCC(=O)O)C(=O)C(C)N(C(=O)c2ccco2)c2ccc(OC)cc2)cc1` (centres unmarked) [Serial No. 17, N-[N-(2-furoyl)-2-(p-anisidino)propionyl]-4-(p-anisidino)butyric acid], the ED50 with bile secretion is 11 mg/kg; in the data set with pancreatic secretion, 5 mg/kg. The selectivity ratio amounted to 68 in data set [2] and 150 in data set [1]. The LD50 at 336 h in “in vivo” worked out at 750 mg/kg.

As to `COc1ccc(N(CCCC(=O)O)C(=O)CCN(C(C)=O)c2c(C)cccc2C)cc1` [Serial No. 20, N-[N-acetyl-3-(2,6-dimethylanilino)propionyl]-4-(p-anisidino)butyric acid], the ED50 in the data set with bile secretion and with pancreatic secretion was 7 mg/kg in each case. Moreover, the selectivity ratio in data set [2] and in data set [1] was 86 each time. In the data set “in vivo”, this compound had an LD50 at 336 h of 600 mg/kg.

The compound `COc1ccc(N(CCCC(=O)O)C(=O)CCCN(C(=O)c2ccc(Cl)cc2)c2c(C)cccc2C)cc1` [Serial No. 13, N-[N-(p-chlorobenzoyl)-4-(2,6-dimethylanilino)butyryl]-4-(p-anisidino)butyric acid] yielded a 50% lethal dose (LD50) at 336 h in “in vivo” of 150 mg/kg. Also, the selectivity ratio in data set [1] is 188. Further, the ED50 in the data set with pancreatic secretion is 0.8 mg/kg.

`COc1ccc(N(CC(=O)N(C)CC(=O)O)C(=O)c2ccc(Cl)cc2)cc1` [Serial No. 3, N-[N-(p-chlorobenzoyl)-2-(p-anisidino)acetyl]sarcosine] showed an LD50 at 336 h in the data set “in vivo” greater than 1000 mg/kg. In addition, in data set [1], the selectivity ratio was greater than 67. Further, the ED50 in the data set on pancreatic secretion is 15 mg/kg.

In the data set “in vivo”, `COc1ccc(N(CC(=O)NCC(=O)O)C(=O)c2ccc(Cl)cc2)cc1` [Serial No. 4, N-[N-(p-chlorobenzoyl)-2-(p-anisidino)acetyl]glycine] yielded a 50% lethal dose (LD50) at 336 h greater than 1000 mg/kg. In addition, the selectivity ratio in data set [1] is greater than 67. The median effective dose (ED50) in the data set with pancreatic secretion amounted to 15 mg/kg.

Turning to `COc1ccc(N(CCCC(=O)O)C(=O)C(C)N(C(C)=O)c2ccc(OC)cc2)cc1` (centres unmarked) [Serial No. 16, N-[N-acetyl-2-(p-anisidino)propionyl]-4-(p-anisidino)butyric acid], the ED50 with bile secretion stood at 10 mg/kg. Moreover, in data set [2], the selectivity ratio amounted to 60. In “in vivo”, this compound had an LD50 at 336 h of 600 mg/kg.

Consider `COc1ccc(N(CCCC(=O)O)C(=O)C(C)N(C(=O)c2ccc(Cl)cc2)c2ccc(OC)cc2)cc1` (centres unmarked) [Serial No. 18, N-[N-(p-chlorobenzoyl)-2-(p-anisidino)propionyl]-4-(p-anisidino)butyric acid], for which the median effective dose (ED50) in the data set on bile secretion was found to be 7 mg/kg; with pancreatic secretion, 5 mg/kg. Moreover, the selectivity ratio in data set [2] is no more than 36; in data set [1] it was no more than 50. Moreover, the median lethal dose (LD50) at 336 h in “in vivo” is no more than 250 mg/kg. Also, the “Toxicity LD50” value with female NMRI mice is no more than 250 mg/kg.

As to `Cc1cccc(C)c1N(CC(=O)NCCC(=O)O)C(=O)c1ccc(Cl)cc1` [Serial No. 7, N-[N-(p-chlorobenzoyl)-2-(2,6-dimethylanilino)acetyl]-3-aminopropionic acid], the median effective dose (ED50) with bile secretion is 10 mg/kg; with pancreatic secretion it was no more than 1 mg/kg. The values for the selectivity ratio in data set [2] and in data set [1] were 45 and no less than 450, respectively. Moreover, the LD50 at 336 h in “in vivo” worked out at 450 mg/kg.

As for `COc1cc(C(=O)N(CCCC(=O)NCCCC(=O)O)c2c(C)cccc2C)cc(OC)c1OC` [Serial No. 15, N-[N-(3,4,5-trimethoxybenzoyl)-4-(2,6-dimethylanilino)butyryl]-4-aminobutyric acid], the LD50 at 336 h in the data set “in vivo” was determined as 800 mg/kg. The selectivity ratio in data set [1] is roughly 800. Moreover, in the data set with pancreatic secretion, the 50% effective dose (ED50) is roughly 1 mg/kg.

With `CCc1cccc(CC)c1N(CCCC(=O)O)C(=O)CCN(C(C)=O)c1c(C)cccc1C` [Serial No. 21, N-[N-acetyl-3-(2,6-dimethylanilino)propionyl]-4-(2,6-diethylanilino)butyric acid], in the data set on bile secretion, the median effective dose (ED50) was roughly 1 mg/kg. For the same compound, the selectivity ratio in data set [2] is roughly 280. This compound registered a median lethal dose (LD50) at 336 h in “in vivo” of 280 mg/kg.

The compound `COc1ccc(N(CCCC(=O)O)C(=O)CN(C(=O)c2ccc(Cl)cc2)c2ccc(OC)cc2)cc1` [Serial No. 9, N-[N-(p-chlorobenzoyl)-2-(p-anisidino)acetyl]-4-(p-anisidino)butyric acid] registered an LD50 at 336 h in the data set “in vivo” of 420 mg/kg. Further, in data set [1], the selectivity ratio turned out to be 140. Besides, in the data set on pancreatic secretion, the 50% effective dose (ED50) turned out to be 3 mg/kg.

In the data set “in vivo”, `Cc1cccc(C)c1N(CC(=O)NCC(=O)O)C(=O)c1ccc(Cl)cc1` [Serial No. 6, N-[N-(p-chlorobenzoyl)-2-(2,6-dimethylanilino)acetyl]glycine] yielded a 50% lethal dose (LD50) at 336 h of 400 mg/kg. For the same compound, the selectivity ratio in data set [1] was roughly 80. The median effective dose (ED50) in the data set with pancreatic secretion was roughly 5 mg/kg.

As for `COc1ccc(C(=O)N[C@@H](Cc2ccccc2)C(=O)N(CCCC(=O)O)c2ccc(OC)cc2)cc1` [Serial No. 24, N-[N-(p-methoxybenzoyl)phenylalanyl]-4-(p-anisidino)butyric acid], the median effective dose (ED50) with bile secretion and in the data set with pancreatic secretion was 6 mg/kg in each case. Further, the selectivity ratio in data set [2] and in data set [1] was 50 each time. This compound gave a 50% lethal dose (LD50) at 336 h in “in vivo” of 300 mg/kg.

Compound `COc1ccc(N(CC(=O)NCCC(=O)O)C(=O)c2ccc(Cl)cc2)cc1` [Serial No. 5, N-[N-(p-chlorobenzoyl)-2-(p-anisidino)acetyl]-3-aminopropionic acid] had an LD50 at 336 h in “in vivo” of 1300 mg/kg. Besides, the selectivity ratio in data set [1] is 52. In the data set on pancreatic secretion, the ED50 came out at 25 mg/kg.

In the data set “in vivo”, `COc1ccc(N(CCCC(=O)O)C(=O)CCN(C(=O)c2ccc(Cl)cc2)c2ccc(OC)cc2)cc1` [Serial No. 10, N-[N-(p-chlorobenzoyl)-3-(p-anisidino)propionyl]-4-(p-anisidino)butyric acid] displayed a median lethal dose (LD50) at 336 h of 220 mg/kg. In addition, the selectivity ratio in data set [1] is roughly 220. Besides, the ED50 with pancreatic secretion is roughly 1 mg/kg.

Regarding `COc1ccc(N(CCCC(=O)N(CCCC(=O)O)c2c(C)cccc2C)C(=O)c2ccc(Cl)cc2)cc1` [Serial No. 12, N-[N-(p-chlorobenzoyl)-4-(p-anisidino)butyryl]-4-(2,6-dimethylanilino)butyric acid], the figures for the ED50 with bile secretion and in the data set with pancreatic secretion were 14 mg/kg and 2 mg/kg, respectively. Besides, the selectivity ratio was 57 in data set [2] and 400 in data set [1]. Besides, in the data set “in vivo”, the median lethal dose (LD50) at 336 h is 800 mg/kg.
